Like-named read-outs stand apart in the source and are kept apart here. Marks after values point to notes of the source that are not given here.
What was measured:
[1] = system: cAMP; assay: cAMP content in rabbit blood platelets; assay type: in vivo; settings: per mg protein; Aminophylline 0.6 mg/kg, DSP 1.0 mg/kg
Description: • 5. Effects on cAMP content in rabbit blood platelets. cAMP content is tested by radioimmunoassay. Protein content is measured by the Hartree Method.

[2] = system: cAMP; assay: cAMP content in rat blood plasma; assay type: in vivo; settings: Aminophylline 30 mg/kg, DSP 50 mg/kg
Description: • 6. Effects on cAMP content in rat blood plasma. Blood cAMP content was tested by radioimmunoassay.

[3] = system: plasma ET
From the text: (§5) Method. The 80 patients were divided into 2 groups: the Control group, with normal treatment, and the DSP group, with 10 DSP tablets, 3 times/day. Testing lasted 4 weeks.

[4] = system: insulin
From the text: as §5

[5] = system: SOD, MDA; assay: High-fats rabbits: SOD activity and MDA content in blood serum and liver; assay type: in vivo; settings: 8 weeks, DSP 4 g raw medicine/kg/d, Simvastatin 1 mg/kg/d
Description: Method. The experimental groups were divided into: (1) Normal control group. Normal feeding; (2) High-fats feeding group: high-fats feeding.
All were fed for 4 weeks. weight and lipoprotein content in the blood were measured. […] Medicine was given to the rabbits through the stomach, according to prescription. The same volume of distilled water was given to the normal control group and high-fats feeding group. Testing ended after 12 weeks.

[6] = system: liver TG; assay: High-fats rabbits: liver TG and liver coefficient; assay type: in vivo; settings: DSP 4 g/kg, Simvastatin 1 mg/kg
Description: (§1) 1.1 Experimental Groups. (1) Normal control group (8 rabbits) normal feeding; (2) High-fats group: High-fats feeding. All were fed for 4 weeks. Weight and lipoprotein in the blood were measured. The high-fats group was divided into 4 sub-groups (12 rabbits in each sub-group). 1. High-fats control group, 2. High-dosage of DSP group (4 g dosage/kg/day), 3. Low-dosage DSP group (2 g dosage/kg/day), and 4. […] All are given distilled water except those with special prescriptions and ends after 12 weeks testing.

[7] = system: serum lipoprotein; assay: High-fats rabbits: lipoprotein in blood serum; assay type: in vivo; settings: DSP 4 g/kg/day, Simvastatin 1 mg/kg/day
Description: (1) Normal control group (8 rabbits) normal feeding; (2) High-fats group: High-fats feeding. All were fed for 4 weeks. Weight and lipoprotein in the blood were measured. […] High-fats control group, 2. High-dosage of DSP group (4 g dosage/kg/day), 3. […] All are given distilled water except those with special prescriptions and ends after 12 weeks testing.

[8] = system: aorta AS; assay: High-fats rabbits: aortic lesion and lipoprotein content in aorta; assay type: in vivo; settings: 8 weeks, DSP 4 g/kg/Day, Simvastatin 1 mg/kg/Day
Description: as §1
1.2 Experimental Methods and Standards. (1) Examination of Aortic Lesion. Drugs were given to the animals for 8 weeks, and then the animals were killed. The aortas were removed and the unnecessary membranes and fats discarded. The aortas were cut open along the mid line. One-fifth of the aorta was removed for lipid examination. […] The percentage of the lesion part was calculated, and a grading was given. […] The average thickness of the interior membrane spot plates was measured by microscopic parameter. […] The number of blood vessels with spot plates in the coronary artery and the lesion percentage (lesion percentage=the number of blood vessels with lesion/the total number of blood vessels in each transect X100%) were observed, calculated and graded according to the blocking of the blood vessels with spot plates. The average points were calculated by accumulation.

[9] = system: blood stasis; assay: Blood flow (Hb, Lb, P, air flow), DSP vs aspirin; assay type: in vivo, human; design: unit not given here
From the text: Hemorrhage at the atherosclerotic lesions induces platelet activation, coronary thrombosis and blood stasis resulting in impaired blood flow. Thus to improve blood flow, chronic administration of the platelet-activation inhibitor aspirin is recommended for patients with angina. The efficacy of DSP and aspirin improving blood flow was compared by evaluating [Hb, Lb, P and air flow]. DSP improves blood flow as efficiently as aspirin. […].

[10] = system: arterial IMT; assay: Hyperlipidemia, DSP vs aspirin: arterial IMT; assay type: in vivo, human
Description: (§2) 1.1 Sample. 53 patients were divided into 2 groups, at random: 25 patients in Treatment group (DSP group), and 28 patients in Control group (aspirin group).
(§3) The medication lasted for 6 months. 50 mg enteric aspirin was given to the Control group, 1 time/day orally.
(§4) 1.3 Standard. a) Measurement of IMT (Arterial tunica intima-tunica media). The horizontal and vertical transactions of the whole-length aorta, carotis communis, exterior artery, and subclavial artery were checked 1, 2, 3, and 6 months after treatment. The thickest part of the IMT was measured and recorded. b) Blood flow included whole blood high-viscosity (hHb), whole blood low-viscosity (hLb), plasma viscosity (hP), Aggregation Index of Red blood cells (AIR) etc. c) Measurement of blood lipoprotein included Total blood Cholesterol (TC) and Triglycerides (TG). D) Statistical treatment by matching t statistic testing.

[11] = system: blood viscosity; assay: Hyperlipidemia, DSP vs aspirin: blood flow; assay type: in vivo, human
Description: as §2, §3, §4

[12] = system: thrombosis; assay: Experimental thrombosis in rats (Umetsu method); assay type: in vivo; settings: experimental thrombo-formation
From the text: • 3. Effects on experimental thrombosis in rats. The Umetsu method is used to carry out the experiment.

[13] = system: cardiac arrhythmia; assay: Cardiac arrhythmia caused by exogenous free radicals, Langendorff rat heart; design: species or system Wistar rat; settings: 1 mg/L verapamil; 50 mg/L DSP; free radicals alone 100%
Description: Langendorff perfusion device was used to pour ferrous sulfate (0.25 mmol/L)/citrate (1.0 mmol/L) into the Wistar rat's artificial heart. The model of free radicals causing heart rhythm irregularity was replicated to observe the effects of DSP.
(1) Blank group (Normal control). Reperfused with perfusion solution for 45 mins continuously. The change in electrocardiographic pattern was observed.
(2) SP group. DSP was added in 50 mg/L of perfusion solution and perfused for 45 mins continuously. The change in electrocardiographic pattern was observed.
(3) Free-radical-damaging group (Free radicals). After pre-perfusing the artificial heart for 15 mins, it was reperfused with perfusion solution containing ferrous sulfate (0.25 mmol/L)/citrate (1.0 mmol/L) for 30 mins continuously. The change in electrocardiographic pattern was observed.
(4) DSP-protected group (DSP+free radicals): DSP was added into 50 mg/L of perfusion solution and pre-perfused for 15 mins. Ferrous sulfate (0.25 mmol/L/citrate (1.0 mmol/L) was added to the perfusion solution and then infuse for 30 mins continuously. The change in electrocardiographic pattern was observed.
(5) Verapamil-protected group (verapamil+free radicals). […] of verapamil was added to the perfusion solution and preperfused for 15 mins. […]

Which results are given for `Cn1c(=O)c2[nH]cnc2n(C)c1=O` [Aminophylline]?
cAMP content in rabbit platelets [1]: 15.4 ± 3.9 pmol/mg; blood plasma cAMP content ([2]; 30 min after treatment): 20.7 ± 3.2 Pmol/ml plasma; blood plasma cAMP content ([2]; 60 min after treatment): 21.1 ± 3.8 Pmol/ml plasma

How did the “Plasma ET” value ([3]; after treatment (4 weeks)) turn out when `CCOC(=O)C1=C(COCCN)NC(C)=C(C(=O)OC)C1c1ccccc1Cl` (centres unmarked) [Amlodipine] was run?
Its value is 42.6 ± 4.78 ng/L.

And the “Plasma ET” value ([3]; before treatment)?
Its value is 57.2 ± 7.31 ng/L.

And the Blood glucose ([4]; 60 min, after treatment)?
The Blood glucose was 9.76 ± 0.52 mmol.

And the Blood insulin ([4]; 60 min, after treatment)?
The Blood insulin was 121.65 ± 1.89 mU/L.

What about the Blood glucose ([4]; 60 min, before treatment) of the same compound?
Its Blood glucose is 9.86 ± 0.65 mmol.

What about the Blood insulin ([4]; 60 min, before treatment) of the same compound?
The Blood insulin was 122.01 ± 1.91 mU/L.

What about the Blood glucose ([4]; 120 min, after treatment) of the same compound?
The Blood glucose was 8.01 ± 0.76 mmol.

And the Blood insulin ([4]; 120 min, after treatment)?
Its Blood insulin is 92.56 ± 1.66 mU/L.

And the Blood glucose ([4]; 120 min, before treatment)?
Its Blood glucose is 7.69 ± 0.81 mmol.

And the Blood insulin ([4]; 120 min, before treatment)?
The Blood insulin was 91.62 ± 1.96 mU/L.

And the Blood glucose ([4]; Empty, after treatment)?
The Blood glucose was 5.27 ± 0.59 mmol.

What about the Blood insulin ([4]; Empty, after treatment) of the same compound?
Its Blood insulin is 25.31 ± 1.73 mU/L.

And the Blood glucose ([4]; Empty, before treatment)?
Its Blood glucose is 5.19 ± 0.56 mmol.

What about the Blood insulin ([4]; Empty, before treatment) of the same compound?
The Blood insulin was 25.34 ± 1.74 mU/L.

What does the source list for `CCC(C)(C)C(=O)O[C@H]1C[C@@H](C)C=C2C=C[C@H](C)[C@H](CC[C@@H]3C[C@@H](O)CC(=O)O3)[C@H]21` [Simvastatin]?
MDA, blood serum [5]: 5.63 ± 1.30 nmol/mL; SOD, Liver [5]: 11.62 ± 0.38*** 10^3 u/g tissue weight; SOD, blood serum [5]: 816.7 ± 77.2 u/ml; Liver Coefficient [6]: 5.16 ± 0.60 g/100 g weight; LDC-C, blood serum ([7]; 2 weeks after dosage): 19.54 ± 5.71 mmol/L; TC, blood serum ([7]; 2 weeks after dosage): 27.06 ± 4.46 mmol/L; TC/HDL-C, blood serum ([7]; 2 weeks after dosage): 32.29 ± 7.39; TG, blood serum ([7]; 2 weeks after dosage): 1.85 ± 0.55 mmol/L; VLDC-C, blood serum ([7]; 2 weeks after dosage): 6.66 ± 1.65 mmol/L; LDC-C, blood serum ([7]; 4 weeks after dosage): 18.22 ± 3.37 mmol/L; TC, blood serum ([7]; 4 weeks after dosage): 26.1 ± 3.03 mmol/L; TC/HDL-C, blood serum ([7]; 4 weeks after dosage): 19.6 ± 4.38; TG, blood serum ([7]; 4 weeks after dosage): 1.80 ± 0.31 mmol/L; VLDC-C, blood serum ([7]; 4 weeks after dosage): 6.54 ± 0.74 mmol/L; LDC-C, blood serum ([7]; 8 weeks after dosage): 17.78 ± 5.69 mmol/L; TC, blood serum ([7]; 8 weeks after dosage): 26.3 ± 4.40 mmol/L; TC/HDL-C, blood serum ([7]; 8 weeks after dosage): 22.3 ± 6.54; TG, blood serum ([7]; 8 weeks after dosage): 2.70 ± 0.77 mmol/L; VLDC-C, blood serum ([7]; 8 weeks after dosage): 7.30 ± 2.05 mmol/L; LDC-C, blood serum ([7]; A/fter dosage): 19.69 ± 8.33 mmol/L; TC, blood serum ([7]; A/fter dosage): 26.92 ± 7.72 mmol/L; TC/HDL-C, blood serum ([7]; A/fter dosage): 31.68 ± 10.14; TG, blood serum ([7]; A/fter dosage): 2.04 ± 1.00 mmol/L; VLDC-C, blood serum ([7]; A/fter dosage): 6.35 ± 1.42 mmol/L; LDC-C, blood serum ([7]; B/f testing): 0.87 ± 0.21 mmol/L; TC, blood serum ([7]; B/f testing): 2.27 ± 0.18 mmol/L; TC/HDL-C, blood serum ([7]; B/f testing): 2.72 ± 0.85; TG, blood serum ([7]; B/f testing): 0.72 ± 0.15 mmol/L; VLDC-C, blood serum ([7]; B/f testing): 0.51 ± 0.27 mmol/L; TC content in aorta [8]: 4.93 ± 2.62

`CC(=O)Oc1ccccc1C(=O)O` [aspirin] was tested. Which Air flow ([9]; Post-) did it give?
The Air flow was 1.40 ± 0.10.

And the Hb ([9]; Post-)?
The Hb was 4.28 ± 1.07.

What about the LB ([9]; Post-) of the same compound?
The LB was 8.21 ± 0.3.

What about the P ([9]; Post-) of the same compound?
Its P is 1.67 ± 0.7.

What about the Air flow ([9]; Pre-) of the same compound?
The Air flow was 1.82 ± 0.17.

And the LB ([9]; Pre-)?
Its LB is 10.38 ± 1.96.

And the P ([9]; Pre-)?
Its P is 1.89 ± 0.12.

And the Hb ([9]; Pre-, 25 patients DSP, 28 aspirin)?
Its Hb is 6.12 ± 1.56.

And the IMT ([10]; after treatment (6 months))?
Its IMT is 2.1 ± 0.7 mm.

What about the IMT ([10]; before treatment) of the same compound?
Its IMT is 2.0 ± 0.8 mm.

What about the AIR ([11]; after treatment (6 months)) of the same compound?
The AIR was 1.40 ± 0.10.

And the “η Hb” value ([11]; after treatment (6 months))?
Its value is 4.28 ± 1.07 mpa · s.

And the “η Lb” value ([11]; after treatment (6 months))?
Its value is 8.21 ± 1.03 mpa · s.

What about the “η P” value ([11]; after treatment (6 months)) of the same compound?
The value was 1.67 ± 0.07 mpa · s.

What about the AIR ([11]; before treatment) of the same compound?
The AIR was 1.82 ± 0.17.

And the “η Hb” value ([11]; before treatment)?
Its value is 6.12 ± 1.56 mpa · s.

And the “η Lb” value ([11]; before treatment)?
Its value is 10.38 ± 1.96 mpa · s.

And the “η P” value ([11]; before treatment)?
The value was 1.89 ± 0.12 mpa · s.

What about the Average aggregation percentage ([12]; Aspirin 30, DSP 50) of the same compound?
The Average aggregation percentage was 10.6 ± 2.1.

What about the Inhibition % ([12]; Aspirin 30, DSP 50 (head: g/kg)) of the same compound?
The Inhibition % was 49.2%.

For `COc1ccc(CCN(C)CCCC(C#N)(c2ccc(OC)c(OC)c2)C(C)C)cc1OC` (centres unmarked) [verapamil], which “cardiac arrhythmia (irregularity) percentage” value [13] is on record?
The value was 71.4%.
